Data taken from ChEMBL document CHEMBL1268952, “Design, synthesis, and evaluation of indolinones as inhibitors of the transforming growth factor β receptor I (TGFβRI)” (J Med Chem, 2010).

Tests used:
TGF-beta receptor type-1 [1] = biological target: T1, TGF-beta receptor type-1 (Homo sapiens, UniProt P36897); assay: Inhibition of TGFbeta receptor in human HaCaT cells assessed as Smad phosphorylation by ELISA; assay type: cell-based
T1 sequence (P36897 whole entry): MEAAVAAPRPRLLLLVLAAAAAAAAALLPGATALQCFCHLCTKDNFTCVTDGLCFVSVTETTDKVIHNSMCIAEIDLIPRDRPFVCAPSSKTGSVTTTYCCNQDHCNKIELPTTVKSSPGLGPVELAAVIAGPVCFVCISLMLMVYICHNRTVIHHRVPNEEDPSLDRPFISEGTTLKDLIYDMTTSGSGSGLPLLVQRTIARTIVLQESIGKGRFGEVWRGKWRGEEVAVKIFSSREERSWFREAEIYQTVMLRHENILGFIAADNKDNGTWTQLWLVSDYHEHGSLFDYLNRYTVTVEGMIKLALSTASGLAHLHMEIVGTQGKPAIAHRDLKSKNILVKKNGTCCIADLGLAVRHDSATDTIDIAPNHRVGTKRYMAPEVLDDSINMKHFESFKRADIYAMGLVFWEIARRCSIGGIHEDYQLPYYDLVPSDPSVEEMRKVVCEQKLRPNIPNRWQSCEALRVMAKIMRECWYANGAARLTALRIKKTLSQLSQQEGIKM

TGF-beta receptor type-1 [2] = biological target: T1, TGF-beta receptor type-1; assay: Inhibition of TGFbeta receptor
[3] = biological target: Platelet-derived growth factor receptor alpha (Homo sapiens, UniProt P16234); assay: Inhibition of PDGFRalpha
HaCaT = assay: Cytotoxicity against human HaCaT cells

Sequence of Platelet-derived growth factor receptor alpha (P16234 whole entry): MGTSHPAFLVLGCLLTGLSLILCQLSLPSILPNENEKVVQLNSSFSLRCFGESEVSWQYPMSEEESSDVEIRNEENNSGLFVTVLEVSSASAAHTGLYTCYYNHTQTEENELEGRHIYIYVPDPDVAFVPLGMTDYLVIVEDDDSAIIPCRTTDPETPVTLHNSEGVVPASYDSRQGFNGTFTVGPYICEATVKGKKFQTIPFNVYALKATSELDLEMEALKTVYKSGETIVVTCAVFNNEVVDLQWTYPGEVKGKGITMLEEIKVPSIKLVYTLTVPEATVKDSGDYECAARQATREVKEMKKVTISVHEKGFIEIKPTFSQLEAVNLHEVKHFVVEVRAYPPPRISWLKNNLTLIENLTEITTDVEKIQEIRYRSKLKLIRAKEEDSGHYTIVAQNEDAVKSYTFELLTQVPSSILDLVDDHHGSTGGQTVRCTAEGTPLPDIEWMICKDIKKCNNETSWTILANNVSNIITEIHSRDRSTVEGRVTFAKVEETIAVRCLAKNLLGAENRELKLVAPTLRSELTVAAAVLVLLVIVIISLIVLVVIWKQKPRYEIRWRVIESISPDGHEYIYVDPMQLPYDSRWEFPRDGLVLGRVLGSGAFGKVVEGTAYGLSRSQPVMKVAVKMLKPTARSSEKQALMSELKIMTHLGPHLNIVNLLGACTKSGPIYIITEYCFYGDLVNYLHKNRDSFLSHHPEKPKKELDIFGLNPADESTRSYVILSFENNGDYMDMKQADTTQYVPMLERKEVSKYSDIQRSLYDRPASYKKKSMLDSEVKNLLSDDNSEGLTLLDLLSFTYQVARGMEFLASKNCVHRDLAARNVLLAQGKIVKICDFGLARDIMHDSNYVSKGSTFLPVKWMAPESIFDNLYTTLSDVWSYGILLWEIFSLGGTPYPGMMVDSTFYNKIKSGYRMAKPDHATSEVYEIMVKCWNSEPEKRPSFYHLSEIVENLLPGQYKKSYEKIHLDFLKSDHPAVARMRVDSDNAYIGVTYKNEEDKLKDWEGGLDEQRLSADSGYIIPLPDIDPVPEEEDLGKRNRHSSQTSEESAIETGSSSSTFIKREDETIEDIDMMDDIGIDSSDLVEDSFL

Row | Compound | EC50 (TGF-beta receptor type-1 [1]) | IC50 (TGF-beta receptor type-1 [2]) | IC50 [3] | IC50 (HaCaT)
1 | CCN(C)C(=O)c1ccc2c(c1)NC(=O)/C2=C(\Nc1ccc(C(=O)OC)cc1)c1ccccc1 |  | 1970 nM |  | 
2 | CCN(C)C(=O)c1ccc2c(c1)NC(=O)/C2=C(\Nc1ccc(N(CC(=O)N(C)C)S(C)(=O)=O)cc1)c1ccccc1 | > 3000 nM | 86 nM |  | 
3 | CCN(C)C(=O)c1ccc2c(c1)NC(=O)/C2=C(\Nc1ccccc1)c1ccccc1 |  | 2590 nM | > 5000 nM | 
4 | CCN(C)C(=O)c1ccc2c(c1)NC(=O)/C2=C(\NC1CCCCC1)c1ccccc1 | > 10000 nM | > 50000 nM | > 5000 nM | 
5 | O=C1Nc2cc(C(=O)NCc3ccccc3)ccc2/C1=C(/Nc1ccc(CN2CCCCC2)cc1)c1ccccc1 |  | 1530 nM |  | 
6 | CCN(CC)Cc1cccc(N/C(=C2\C(=O)Nc3cc(C(=O)N(C)CC)ccc32)c2ccccc2)c1 |  | 616 nM |  | 
7 | O=C1Nc2cc(C(=O)N3CCCC3)ccc2/C1=C(/Nc1ccc(CN2CCCCC2)cc1)c1ccccc1 | 696 nM | 245 nM |  | 
8 | CCN(CC)C(=O)c1ccc2c(c1)NC(=O)/C2=C(\Nc1ccc(CN2CCCCC2)cc1)c1ccccc1 |  | 625 nM |  | 
9 | CCN(C)C(=O)c1ccc2c(c1)NC(=O)/C2=C(\Nc1ccc(C(=O)O)cc1)c1ccccc1 |  | 782 nM |  | 
10 | O=C1Nc2cc(C(=O)NCCO)ccc2/C1=C(/Nc1ccc(CN2CCCCC2)cc1)c1ccccc1 | > 50000 nM | 430 nM |  | 
11 | CCNC(=O)c1ccc2c(c1)NC(=O)/C2=C\Nc1ccc(CN2CCCCC2)cc1 | 376 nM | 69 nM |  | 
12 | NC(=O)c1ccc2c(c1)NC(=O)/C2=C(\Nc1ccc(CN2CCCCC2)cc1)c1ccccc1 | > 50000 nM | 369 nM |  | 
13 | CC(C)NC(=O)c1ccc2c(c1)NC(=O)/C2=C(\Nc1ccc(CN2CCCCC2)cc1)c1ccccc1 | 708 nM | 318 nM |  | 
14 | CCCCNC(=O)c1ccc2c(c1)NC(=O)/C2=C(\Nc1ccc(CN2CCCCC2)cc1)c1ccccc1 | 1060 nM | 91 nM |  | 
15 | CCN(C)C(=O)c1ccc2c(c1)NC(=O)/C2=C(\Nc1ccc(N(C)S(C)(=O)=O)cc1)c1ccccc1 | > 10000 nM | 231 nM |  | 
16 | CCN(C)C(=O)c1ccc2c(c1)NC(=O)/C2=C(\NC1CCN(C)CC1)c1ccccc1 | > 10000 nM | > 50000 nM | > 5000 nM | 
17 | CCN(CC)CCNC(=O)c1ccc(N/C(=C2\C(=O)Nc3cc(C(=O)N(C)CC)ccc32)c2ccccc2)cc1 | 542 nM | 64 nM |  | 

More lines, in order of falling IC50 (TGF-beta receptor type-1 [2]), values ahead:

Row | EC50 (TGF-beta receptor type-1 [1]) | IC50 (TGF-beta receptor type-1 [2]) | IC50 [3] | Compound | IC50 (HaCaT)
18 | 259 nM | 64 nM |  | CCN(C)C(=O)c1ccc2c(c1)NC(=O)/C2=C(\Nc1ccc(CCN(C)C)cc1)c1ccccc1 | > 1000 nM
19 | 4360 nM | 52 nM |  | CCNC(=O)c1ccc2c(c1)NC(=O)/C2=C\Nc1ccc(N(C)C(=O)CN(C)C)cc1 | 
20 | 135 nM | 47 nM |  | CCNC(=O)c1ccc2c(c1)NC(=O)/C2=C(\Nc1ccc(CCN(C)C)cc1)c1ccccc1 | 
21 | 246 nM | 35 nM |  | CN(C)C(=O)c1ccc2c(c1)NC(=O)/C2=C(\Nc1ccc(CN2CCCCC2)cc1)c1ccccc1 | 
22 | 3380 nM | 35 nM |  | CCNC(=O)c1ccc2c(c1)NC(=O)/C2=C(\Nc1ccc(N(C)C(=O)CN(C)C)cc1)c1ccccc1 | 
23 | 505 nM | 33 nM |  | CCNC(=O)c1ccc2c(c1)NC(=O)/C2=C(\Nc1ccc(C(=O)NCCN(CC)CC)cc1)c1ccccc1 | 
24 |  | 32 nM |  | CNC(=O)c1ccc2c(c1)NC(=O)/C2=C(\Nc1ccc(CN2CCCCC2)cc1)c1ccccc1 | 
25 | 382 nM | 29 nM |  | CCN(C)C(=O)c1ccc2c(c1)NC(=O)/C2=C(\Nc1ccc(N(C)C(=O)CN(C)C)cc1)c1ccccc1 | 
26 | 75 nM | 24 nM |  | CCNC(=O)c1ccc2c(c1)NC(=O)/C2=C(\Nc1ccc(CN2CCCCC2)cc1)c1ccccc1 | 
27 | 597 nM | 17 nM |  | CCNC(=O)c1ccc2c(c1)NC(=O)/C2=C\Nc1ccc(N(CCCN(C)C)C(C)=O)cc1 | 
28 | 2180 nM | 15 nM | > 5000 nM | CCNC(=O)c1ccc2c(c1)NC(=O)/C2=C\Nc1ccc(N(C)C(=O)CN2CCN(C)CC2)cc1 | 
29 | 411 nM | 9 nM |  | CCN(C)C(=O)c1ccc2c(c1)NC(=O)/C2=C(\Nc1ccc(N(CCCN(C)C)C(C)=O)cc1)c1ccccc1 | 
30 | 1370 nM | 9 nM |  | CCNC(=O)c1ccc2c(c1)NC(=O)/C2=C(\Nc1ccc(N(C)C(=O)CN2CCN(C)CC2)cc1)c1ccccc1 | 
31 | 102 nM | 8 nM |  | CCN(C)C(=O)c1ccc2c(c1)NC(=O)/C2=C(\Nc1ccc(N(CCN(C)C)C(C)=O)cc1)c1ccccc1 | 
32 | 209 nM | 7 nM |  | CCN(C)C(=O)c1ccc2c(c1)NC(=O)/C2=C(\Nc1ccc(N(CCN(C)C)S(C)(=O)=O)cc1)c1ccccc1 | 
33 | 833 nM | 7 nM |  | CCN(C)C(=O)c1ccc2c(c1)NC(=O)/C2=C(\Nc1ccc(N(C)C(=O)CN2CCN(C)CC2)cc1)c1ccccc1 | 
34 | 1070 nM | 3 nM |  | CCNC(=O)c1ccc2c(c1)NC(=O)/C2=C(\Nc1ccc(N(CCN(C)C)C(C)=O)cc1)c1ccccc1 | 
35 | 1250 nM | 3 nM |  | CCNC(=O)c1ccc2c(c1)NC(=O)/C2=C(\Nc1ccc(N(CCCN(C)C)C(C)=O)cc1)c1ccccc1 | 
